Results published in patent publication EP0968998A1, “Cosmetic compositions, ceramide analogues with anti-elastase activity and process for their preparation” (ELF ATOCHEM S.A., priority 1998, dated 2000).

Target: T1, élastase de leucocytes humains (Homo sapiens, UniProt P08246)
T1 construct: purchased Elastin Products Co. SE 563; host or cells: human leukocytes, as the enzyme's name says
T1 sequence (P08246 30-267): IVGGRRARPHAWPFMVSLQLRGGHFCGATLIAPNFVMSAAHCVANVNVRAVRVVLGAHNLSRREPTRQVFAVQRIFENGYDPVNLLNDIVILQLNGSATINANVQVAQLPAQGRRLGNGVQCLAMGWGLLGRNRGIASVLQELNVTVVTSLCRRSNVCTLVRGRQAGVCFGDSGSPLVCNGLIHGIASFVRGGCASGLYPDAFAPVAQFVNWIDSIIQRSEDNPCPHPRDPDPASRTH
Test: Anti-elastase activity: release of p-nitroaniline from N-succinyl-(Ala)3-p-nitroanilide, spectrophotometry at 410 nm
Format: biochemical
Conditions: pH 8, 37°C, pH8, 5 min preincubation, substrate 250 µM, read-out: % I (%)
Text: Les exemples qui suivent permettent d'illustrer l'invention. Dans ces exemples, on utilise les méthodes d'analyse suivantes : - Spectrographie infrarouge (IR) Les spectres sont réalisés au moyen d'un appareil PERKIN ELMER 1760 IRTF, en dispersion dans KBr à 1 %. Les valeurs sont exprimées en nombre d'onde par centimètre. - Résonance magnétique nucléaire (RMN) Les spectres sont réalisés au moyen d'un appareil BRUCKER DRX 500, à 500 MHz (^1H) et 125 MHz (^13C) dans le DMSO-d6. La calibration de l'appareil est effectuée au moyen de DMSO. Les déplacements chimiques sont exprimés en ppm. L'aspect des signaux est noté : singulet (s), doublet (d), triplet (t), quadruplet (q), multiplet (m), quintuplet (*5) et couplage AB (AB). - Mesure de l'activité anti-élastase L'activité anti-élastase est mesurée selon la méthode qui consiste à faire réagir l'élastase de leucocytes humains (référence SE 563; Elastin Products Co.; Owensville, MO, USA) avec le N-succinyl-(Ala)3-p-nitroanilide (réf. S4760; Sigma) et mesurer la libération de p-nitroaniline. On utilise le N-succinyl-(Ala)3-p-nitroanilide en solution dans le tétrahydrofurane et une solution d'élastase à 100 mg/ml dans un mélange de glycérol et de tampon acétate de sodium (50/50; v/v), pH5. L'activité de l'enzyme est mesurée à 37°C dans 100 mM de tampon Tris-HCI, pH8 contenant 0,01 % de Triton X-100 (volume/volume) et 0,02 % d'azide de sodium (poids/volume). Le céramide à tester, solubilisé dans le tétrahydrofurane (concentration en THF = 0,5 % en volume) est préincubé en présence de l'enzyme (0,05 mg/ml) dans le tampon pendant 5 minutes à 37°C. On ajoute le N-succinyl-(Ala)3-p-nitroanilide (concentration finale : 250 µM) et on mesure la libération de la p-nitroaniline dans une cuve en quartz par spectrophotométrie à 410 nm. La capacité inhibitrice du céramide est exprimée en pourcentage d'inhibition (% I) selon la relation : %I = (1 -(Vi)/(Vo))×100 [formula] dans laquelle Vi et Vo sont les vitesses d'apparition de la p-nitroaniline en présence et en absence d'inhibiteur respectivement. - Mesure de l'amélioration de la barrière cutanée a) mesure de la Perte Insensible en Eau (PIE) La mesure de la PIE permet de quantifier la très faible quantité d'eau qui diffuse passivement à travers le stratum corneum. Ce paramètre représente un très bon index de la fonction barrière du stratum corneum. Cette méthode est surtout utilisée pour contrôler l'efficacité de formules cosmétiques qui, contenant certains types de lipides sont capables de diminuer la PIE et, en conséquence, d'empêcher la déshydratation du stratum corneum. La sonde est laissée en contact de la peau pendant 2 minutes environ de façon à atteindre une position d'équilibre. PIE = D'(dP)/(dx)(gradient de pression de vapeur) [formula] Les valeurs sont exprimées en g/m^2/heure et permettent de calculer un delta de PIE = PIE (peau traitée) - PIE (peau témoin). L'appareil utilisé est un Evaporimètre EPI de Servomed. Les mesures sont effectuées sur deux groupes de 15 volontaires sains ayant une peau sèche, avant l'application du produit (t=0) et après l'application (t=0,5 heure, 1 heure, 3 heures et 6 heures) sur la face interne des deux avant-bras. L'analogue de céramide selon l'invention ou le céramide témoin est incorporé dans une crème ayant la composition suivante (en % en poids) : […]

How did the inhibition at 250 µM (Concentration 250 µM) turn out when `CCCCCCCCCCCCCCCCCC(=O)NC(CC)(CO)COC(=O)CCCCCCCCCCCCCCCCC` (centres unmarked) [Exemple 4, 1-stéaroyl-2-éthyl-2-stéaroylamino-1,3-propanediol] was run?
The inhibition at 250 µM was 67%.

What about the inhibition at 500 µM (Concentration 500 µM) of the same compound?
The inhibition at 500 µM was 86%.
